Reference: patent publication US10168342B2, “Lipid probes and uses thereof” (THE SCRIPPS RESEARCH INSTITUTE, priority 2015, dated 2019)

Assays:
[1] = target: T1, A-DA lipid probe targets in A549 cells (Homo sapiens, UniProt O15173); experiment: In situ competitive SILAC profiling with A-DA probe in (PMA-stimulated) A549 cells; details: A549 cells, A-DA probe
T1 sequence (O15173 1-223): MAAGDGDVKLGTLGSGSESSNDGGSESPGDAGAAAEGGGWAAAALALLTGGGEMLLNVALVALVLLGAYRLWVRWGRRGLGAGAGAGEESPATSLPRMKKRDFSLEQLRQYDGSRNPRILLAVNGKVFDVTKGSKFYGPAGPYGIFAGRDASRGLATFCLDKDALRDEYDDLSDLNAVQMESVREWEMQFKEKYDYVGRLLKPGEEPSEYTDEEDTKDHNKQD

[2] = target: A-DA lipid probe targets in A549 cells (Homo sapiens, UniProt Q14534); experiment: as above; details: A549 cells, A-DA probe
[3] = target: T2, A-DA lipid probe targets in A549 cells (Homo sapiens, UniProt Q96KC8); experiment: as above; details: A549 cells, A-DA probe
T2 sequence (Q96KC8 48-554): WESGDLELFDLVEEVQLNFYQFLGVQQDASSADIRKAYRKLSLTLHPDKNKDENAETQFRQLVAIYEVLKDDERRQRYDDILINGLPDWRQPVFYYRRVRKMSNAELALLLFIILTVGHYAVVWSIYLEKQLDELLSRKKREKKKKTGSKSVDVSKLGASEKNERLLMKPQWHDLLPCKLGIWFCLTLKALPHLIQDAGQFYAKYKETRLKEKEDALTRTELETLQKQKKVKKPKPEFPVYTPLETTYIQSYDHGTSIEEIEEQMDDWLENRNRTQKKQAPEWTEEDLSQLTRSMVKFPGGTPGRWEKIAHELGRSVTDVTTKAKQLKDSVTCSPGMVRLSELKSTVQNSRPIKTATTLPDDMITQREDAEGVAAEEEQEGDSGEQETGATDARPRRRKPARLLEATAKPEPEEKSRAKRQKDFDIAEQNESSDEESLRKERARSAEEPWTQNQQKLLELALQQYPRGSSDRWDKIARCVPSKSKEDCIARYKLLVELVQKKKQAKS

[4] = target: T3, A-DA lipid probe targets in A549 cells (Homo sapiens, UniProt Q99536); experiment: as above; details: A549 cells, A-DA probe
T3 sequence (Q99536 1-393): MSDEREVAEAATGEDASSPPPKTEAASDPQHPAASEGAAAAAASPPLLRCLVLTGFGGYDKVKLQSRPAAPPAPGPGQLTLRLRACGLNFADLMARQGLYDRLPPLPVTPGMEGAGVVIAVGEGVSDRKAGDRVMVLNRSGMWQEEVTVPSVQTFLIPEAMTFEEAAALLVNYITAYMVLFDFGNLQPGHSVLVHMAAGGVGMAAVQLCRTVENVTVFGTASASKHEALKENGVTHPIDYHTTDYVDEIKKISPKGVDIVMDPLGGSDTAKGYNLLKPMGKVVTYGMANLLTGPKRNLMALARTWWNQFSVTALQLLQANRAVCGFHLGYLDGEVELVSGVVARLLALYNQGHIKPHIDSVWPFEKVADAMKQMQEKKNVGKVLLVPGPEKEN

[5] = system: NAEs, NATs, AA and 2-AG in Neuro2a cells; experiment: Targeted LC-MS (MRM) analysis of lipids from Neuro2a cells; type: cell-based, mouse; details: for NAEs when co-treated with PF-7845 (1 μM) / AA levels: 10 μM; for AA levels / 2-AG levels / cellular concentrations of NAEs and NATs: Neuro2a cells; for 2-AG levels / cellular concentrations of NAEs and NATs: 10 μM (PF-7845 1 μM); for cellular concentrations of NAEs and NATs: 6 h
Experimental: Discovery metabolite profiling was performed as described by Saghatelian et al., “Assignment of endogenous substrates to enzymes by global metabolite profiling,” Biochemistry 43:14332-14339 (2004) with several modifications. […] The media from the cells was removed and cells were washed with DPBS (2×5.0 mL) before adding freshly prepared media solutions containing vehicle or compound. After incubating for 6 h at 37° C. and subsequent removal of the media, the cells were harvested by scrapping in cold DPBS (3 mL) and pelleted by centrifugation in glass vials. The pellets were washed once with cold DPBS (3 mL) and then cold […] (2:1) (3 mL) was added. After vortexing, the vials were centrifuged (3,000×g, 10 min, 4° C.) and the bottom (organic) layer was transferred to a new glass vial and concentrated under a stream of N2. Samples were stored at −80° C. until the day of analysis when they were reconstituted in Mobile Phase A (100 μL, see below).
Neuro2a cells were treated and lipids extracted as described above. A mixture of internal standards [AEA-d4 (10 pmol), 2-AG-d5 (100 pmol), AA-d8 (100 pmol), PEA-d4 (100 pmol), PDA (1.0 nmol)] was added to the organic phase prior to extracting cells. NAEs, MAGs, AA and NATs were analyzed similarly to previously described methods (Saghatelian et al., 2004). The following MS parameters were used to measure the indicated metabolites by MRM (precursor ion, product ion, collision energy, polarity): NAE 20:4 (AEA) (348, 62, 12, positive), AEA-d4 (352, 66, 12, positive), NAE 16:0 (PEA) (300, 62, 12, positive), PEA-d4 (304, 62, 12, positive), NAE 18:0 (328, 62, 12, positive), NAE 18:1 (326, 62, 12, positive), NAE 18:2 (324, 62, 12, positive), 2-AG (379, 287, 8, positive), 2-AG-d5 (384, 287, 8, positive), AA (303, 259, 4, negative), AA-d8 (311, 267, 4, negative), NAT 20:4 (410, 80, 35, negative), NAT 22:1 (444, 80, 35, negative), NAT 24:1 (472, 80, 35, negative), NAT 24:0 (474, 80, 35, negative), NAT 26:0 (502, 80, 35, negative). The indicated lipids were quantified by measuring the area under the peak relative to an internal standard (AEA-d4 for AEA and NAE 18:2; PEA-d4 for PEA, NAE 18:1 and NAE 18:0; 2-AG-d5 for 2-AG; AA-d8 for AA and 20:4 NAT; PDA for all other NATs).

A-DA lipid probe targets in A549 cells (Homo sapiens, UniProt Q14534), sequence (Q14534 whole entry): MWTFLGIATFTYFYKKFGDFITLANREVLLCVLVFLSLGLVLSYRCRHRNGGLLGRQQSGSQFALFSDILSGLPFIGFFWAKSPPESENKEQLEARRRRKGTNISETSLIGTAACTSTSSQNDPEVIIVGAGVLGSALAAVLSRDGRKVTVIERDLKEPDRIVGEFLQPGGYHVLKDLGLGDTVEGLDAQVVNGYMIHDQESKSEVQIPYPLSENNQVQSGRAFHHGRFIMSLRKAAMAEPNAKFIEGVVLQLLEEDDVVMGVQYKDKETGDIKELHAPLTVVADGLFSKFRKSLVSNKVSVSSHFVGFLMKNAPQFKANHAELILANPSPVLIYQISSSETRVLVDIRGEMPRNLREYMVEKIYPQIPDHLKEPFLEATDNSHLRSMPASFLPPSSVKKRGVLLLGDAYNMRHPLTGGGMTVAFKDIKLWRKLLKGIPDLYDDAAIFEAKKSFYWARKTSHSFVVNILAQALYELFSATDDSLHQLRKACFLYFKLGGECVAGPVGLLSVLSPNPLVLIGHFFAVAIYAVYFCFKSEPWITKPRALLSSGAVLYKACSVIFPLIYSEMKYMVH

O=C(/C=C/c1cccnc1)NCCCCC1CCN(C(=O)c2ccccc2)CC1 [FK-866, reference compound]
SILAC ratio, PGRMC2 (Q80UU9) ([1]; competitor 25 μM): 1.2
SILAC ratio, SQLE (Q14534) ([2]; competitor 25 μM): 1.6
SILAC ratio, DNAJC1 (Q96KC8) ([3]; competitor 25 μM): 1.3
SILAC ratio, VAT1 (Q99536) ([4]; competitor 25 μM): 4.0

CN1CCN(C(=O)c2c(-c3ccccc3)c3cc([N+](=O)[O-])ccc3n2C)CC1 [KML110, (1-Methyl-5-nitro-3-phenyl-1H-indol-2-yl)(4-methylpiperazin-1-yl)methanone]
NAEs when co-treated with PF-7845 (1 μM) [5]: do not produce elevations
AA levels [5]: do not affect
2-AG levels [5]: modest increase
cellular concentrations of NAEs and NATs [5]: elevated

CN1CCN(C(=O)c2[nH]c3ccc([N+](=O)[O-])cc3c2-c2ccccc2)CC1 [MJN228, (4-Methylpiperazin-1-yl)(5-nitro-3-phenyl-1H-indol-2-yl)methanone]
NAEs when co-treated with PF-7845 (1 μM) [5]: do not produce elevations
AA levels [5]: do not affect
2-AG levels [5]: modest increase
cellular concentrations of NAEs and NATs [5]: elevated

C=CCN(C)CCCCCCOc1ccc(C(=O)c2ccc(Br)cc2)c(F)c1 [Ro488071]
SILAC ratio, PGRMC2 (Q80UU9) ([1]; competitor 5 μM): 1.6
SILAC ratio, PGRMC2 (Q80UU9) ([1]; competitor 50 μM): 2.1
SILAC ratio, SQLE (Q14534) ([2]; competitor 5 μM): 1.4
SILAC ratio, SQLE (Q14534) ([2]; competitor 50 μM): 3.3
SILAC ratio, DNAJC1 (Q96KC8) ([3]; competitor 5 μM): 1.6
SILAC ratio, DNAJC1 (Q96KC8) ([3]; competitor 50 μM): 3.9
SILAC ratio, VAT1 (Q99536) ([4]; competitor 5 μM): 1.4
SILAC ratio, VAT1 (Q99536) ([4]; competitor 50 μM): 2.5
